Experiments:
Settings in all cases: incubation time: 72 h
[1] = tested on: CAL-120; assay: normalised viability (% of control), CellTiter-Blue; higher = more viable cells (about 100 = DMSO control)
Summary of the method: (§1)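 After 72 h on compound-loaded 384-well plates, breast cancer cell lines received 2.5 µl CellTiter-Blue reagent for 2 h at 37 °C. Fluorescence at 560/590 nm was scaled per plate so that vehicle was 100 and a positive kill control was 0. The value stands for normalised viability at a single listed concentration of the series.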

[2] = tested on: MDA-MB-231; assay: as above
Summary of the method: as §1

[3] = tested on: MDA-MB-453; assay: as above
Summary of the method: as §1

[4] = tested on: MDA-MB-436; assay: as above
Summary of the method: as §1

[5] = tested on: MDA-MB-468; assay: as above
Summary of the method: as §1

[6] = tested on: SK-BR-3; assay: as above
Summary of the method: as §1

[7] = tested on: HCC1599; assay: as above
Summary of the method: as §1

[8] = tested on: DU-4475; assay: as above
Summary of the method: as §1

[9] = tested on: BT-474; assay: as above
Summary of the method: as §1

[10] = tested on: BT-549; assay: as above
Summary of the method: as §1

[11] = tested on: MFM-223; assay: as above
Summary of the method: as §1

[12] = tested on: CAL-85-1; assay: as above
Summary of the method: as §1

[13] = tested on: Hs578T; assay: as above
Summary of the method: as §1

[14] = tested on: CAL-120; assay: drug sensitivity score (DSS), CellTiter-Blue viability (DSS (AUC-based score)); higher = stronger viability inhibition; extreme values may be limits of the assay
Protocol: (§2)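 DSRT with the CellTiter-Blue (resazurin reduction) viability readout, fluorescence 560/590 nm, 72 h incubation. Plates were normalised to DMSO and benzethonium chloride controls. DSS is computed from the area under the fitted dose-response curve (5 or 9 concentrations).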

[15] = tested on: MDA-MB-231; assay: as above
Protocol: as §2

[16] = tested on: CAL-51; assay: as above
Protocol: as §2

[17] = tested on: HDQ-P1; assay: as above
Protocol: as §2

[18] = tested on: MDA-MB-453; assay: as above
Protocol: as §2

[19] = tested on: MDA-MB-468; assay: as above
Protocol: as §2

[20] = tested on: HCC1937; assay: as above
Protocol: as §2

[21] = tested on: CAL-148; assay: as above
Protocol: as §2

[22] = tested on: HCC1599; assay: as above
Protocol: as §2

[23] = tested on: HCC1143; assay: as above
Protocol: as §2

[24] = tested on: DU-4475; assay: as above
Protocol: as §2

[25] = tested on: BT-474; assay: as above
Protocol: as §2

[26] = tested on: MFM-223; assay: as above
Protocol: as §2

[27] = tested on: CAL-85-1; assay: as above
Protocol: as §2

[28] = tested on: Hs578T; assay: as above
Protocol: as §2

Row | SMILES | normalised viability ([1]; 100 nM) [%] | normalised viability ([2]; 100 nM) [%] | normalised viability ([3]; 10 nM) [%] | normalised viability ([4]; 100 nM) [%] | normalised viability ([5]; 100 nM) [%] | drug sensitivity score [14] | drug sensitivity score [15] | drug sensitivity score [16] | drug sensitivity score [17] | drug sensitivity score [18] | drug sensitivity score [19] | drug sensitivity score [20] | drug sensitivity score [21] | drug sensitivity score [22] | drug sensitivity score [23] | drug sensitivity score [24] | drug sensitivity score [25] | drug sensitivity score [26] | drug sensitivity score [27] | drug sensitivity score [28] | further results
1 | CN(C)c1nc(N(C)C)nc(N(C)C)n1 [Altretamine] | 95.5 | 96.8 | 97.5 | 89.5 | 104 | 0 | 0 | 0 | 0 | 2.05 | 0 | 0 | 0 | 1.24 | 0 | 0 | 0 | 0 | 1.01 | 0 | normalised viability ([6]; 100 nM): 92.2%; normalised viability ([7]; 100 nM): 109%; normalised viability ([8]; 10 nM): 104%; normalised viability ([9]; 100 nM): 117%; normalised viability ([10]; 100 nM): 84.4%; normalised viability ([11]; 100 nM): 97.2%; normalised viability ([12]; 10 nM): 102%; normalised viability ([13]; 100 nM): 96.1%
2 | CO[C@H]1C[C@@H]2CC[C@@H](C)[C@@](O)(O2)C(=O)C(=O)N2CCCC[C@H]2C(=O)O[C@H]([C@H](C)C[C@@H]2CC[C@@H](OP(C)(C)=O)[C@H](OC)C2)CC(=O)[C@H](C)/C=C(\C)[C@@H](O)[C@@H](OC)C(=O)[C@H](C)C[C@H](C)/C=C/C=C/C=C/1C [Ridaforolimus] | – | – | – | – | – | 19.1 | 2.74 | 22 | 7.08 | 29.9 | 16.7 | 17.2 | 25 | 0 | 16.3 | 16.7 | 14.5 | 22.1 | 16 | 19.1 | normalised viability ([1]; 10 nM): 48.2%; normalised viability ([2]; 10 nM): 71.9%; normalised viability ([3]; 1 nM): 44.5%; normalised viability ([4]; 10 nM): 85.6%; normalised viability ([5]; 10 nM): 61.2%; normalised viability ([6]; 10 nM): 48.4%; normalised viability ([7]; 10 nM): 91.8%; normalised viability ([8]; 1 nM): 78.2%; normalised viability ([9]; 10 nM): 60.7%; normalised viability ([10]; 10 nM): 62.4%; normalised viability ([11]; 10 nM): 45.2%; normalised viability ([12]; 1 nM): 67.4%; normalised viability ([13]; 10 nM): 50.4%
3 | Cc1ccc(NC(=O)c2ccc(CN3CCN(C)CC3)cc2)cc1Nc1nc(-c2cccnc2)cs1 [Masitinib] | 82.3 | 88.7 | 103 | 71.6 | 103 | 0 | 0 | 0 | 0 | 4.09 | 0 | 0 | 0 | 0 | 0 | 0 | 0 | 0 | 0 | 0 | normalised viability ([6]; 100 nM): 80.7%; normalised viability ([7]; 100 nM): 109%; normalised viability ([8]; 10 nM): 102%; normalised viability ([9]; 100 nM): 115%; normalised viability ([10]; 100 nM): 88.3%; normalised viability ([11]; 100 nM): 101%; normalised viability ([12]; 10 nM): 98.1%; normalised viability ([13]; 100 nM): 86.6%
4 | COCC1(CO)C(=O)C2CCN1CC2 (stereo not drawn) [Prima-1 Met] | 91.5 | 91.3 | 106 | 101 | 106 | 0 | 0 | 0 | 0 | 0 | 0 | 3.72 | 0 | 0 | 0 | 0 | 2.5 | 0 | 0 | 0.00378 | normalised viability ([6]; 100 nM): 94.2%; normalised viability ([7]; 100 nM): 122%; normalised viability ([8]; 10 nM): 99.2%; normalised viability ([9]; 100 nM): 104%; normalised viability ([10]; 100 nM): 79.3%; normalised viability ([11]; 100 nM): 87.6%; normalised viability ([12]; 10 nM): 91.4%; normalised viability ([13]; 100 nM): 82.6%
5 | O=P1(N(CCCl)CCCl)NCCCO1 (stereo not drawn) [Cyclophosphamide] | – | – | – | – | – | 0 | 0 | 0 | 0 | 0 | 0 | 0 | 0 | 0 | 0 | 0 | 0 | 0 | 0 | 0 | normalised viability ([1]; 400 nM): 85.6%; normalised viability ([2]; 400 nM): 97.8%; normalised viability ([3]; 40 nM): 110%; normalised viability ([4]; 400 nM): 101%; normalised viability ([5]; 400 nM): 109%; normalised viability ([6]; 400 nM): 91.6%; normalised viability ([7]; 400 nM): 109%; normalised viability ([8]; 40 nM): 103%; normalised viability ([9]; 400 nM): 118%; normalised viability ([10]; 400 nM): 117%; normalised viability ([11]; 400 nM): 91.1%; normalised viability ([12]; 40 nM): 101%; normalised viability ([13]; 400 nM): 93%
6 | COC(=O)c1ccc2c(c1)NC(=O)/C2=C(\Nc1ccc(N(C)C(=O)CN2CCN(C)CC2)cc1)c1ccccc1 [BIBF 1120] | 95.4 | 104 | 101 | 98.9 | 111 | 6.55 | 4.3 | 5.59 | 1.16 | 5.53 | 2.89 | 0 | 0 | 0 | 0 | 2.02 | 3.34 | 9.32 | 1.29 | 1.63 | normalised viability ([6]; 100 nM): 91.6%; normalised viability ([7]; 100 nM): 91.3%; normalised viability ([8]; 10 nM): 114%; normalised viability ([9]; 100 nM): 130%; normalised viability ([10]; 100 nM): 111%; normalised viability ([11]; 100 nM): 79.1%; normalised viability ([12]; 10 nM): 99.9%; normalised viability ([13]; 100 nM): 104%

— the supplement of paper PMC4862054
